# Columns and labels:
# wild mustard (SINAR) = assay: Test 24 growth chamber, postemergence; assay type: in vivo, Sinapis arvensis; conditions: 17 DAA
# Procedure: (§1) Plants were treated postemergence at the 2-4 leaf growth stage, and each treatment was replicated three times. […] Plants were watered as needed. […] Results for barley and wheat are the means across varieties of the three replicates, and results for the weeds are the means of the three replicates.
# barnyardgrass (ECHCG) = assay: Test 28 greenhouse, postemergence; assay type: in vivo, Echinochloa crus-galli; conditions: 26 DAA
# Procedure: (§2) A greenhouse test was conducted to evaluate the effects on the plant species corn (ZEAMD, Zea mays ssp. indentata), sorghum (SORVU, Sorghum vulgare L.), dry-seeded rice (ORYSA, Oryza sativa L.), wheat (TRZAW, Triticum aestivum L.), ivyleaf morningglory (IPOHE, Ipomoea hederacea (L.) JACQ.), and barnyardgrass (ECHCG, Echinochloa crus-galli (L.) P. BEAUV.), of mixtures of Compound 2 with isoxadifen-ethyl. Corn, sorghum, rice, wheat, ivyleaf morningglory and barnyardgrass seeds were planted in RediEarth, a commercial potting medium. […] Corn plants were treated postemergence at the V2 growth stage, and sorghum, rice, wheat, ivyleaf morningglory, and barnyardgrass plants were treated postemergence at the 3-leaf stage. […] Each treatment was replicated three times. […] Plants were watered as needed.
# velvetleaf (ABUTH) = assay: Test 15 greenhouse, postemergence; conditions: 12 DAA
# [1] = system: ivyleaf morningglory (IPOHE); assay: Test 26 field trial, postemergence; assay type: in vivo, Ipomoea hederacea; parameters: scale not given here
# From the text: (§3) Corn seeds (hybrid ‘Pioneer 31G96’) were planted in mid spring season, 3.8 cm deep in a silt loam soil having 2% organic matter and a pH of 6.6. Plots were 6.1 m long by 3.0 m wide with rows spaced 76 cm apart. Seeds were spaced 15 cm apart within the rows. The field was managed using conventional tillage practices. […] All treatments also included a surfactant. […] Some of the weed species could not be evaluated at every timing. […] Results are the means of the three replicates.
# corn (ZEAMD) [2] = assay: Test 26 field trial, postemergence; assay type: in vivo, Zea mays ssp. indentata; parameters: scale not given here
# From the text: as §3
# wild chamomile (MATCH) = assay: Test 24 growth chamber, postemergence; assay type: in vivo, Matricaria chamomilla; conditions: 17 DAA
# Procedure: as §1
# Russian thistle (SASKR) = assay: Test 4 field trial, postemergence; assay type: in vivo, Salsola kali; parameters: scale not given here
# Procedure: A field trial was conducted to evaluate the effects of mixtures of Compound 2 with commercial herbicides on spring wheat (TRZAS, Triticum aestivum L.) and several weed species. Wheat seeds (cv. ‘AC Intrepid’) were planted in late spring season, 3.8 cm deep in a loam soil having 2.7% organic matter and a pH of 7. Plots were 6 m long by 2.5 m wide. The field was managed using no-till practices. The plots were arranged in a randomized complete block design with each treatment being replicated four times. Treatments were applied postemergence 25 days after planting using a backpack sprayer delivering a spray volume of 55 L/ha using a pressure of 276 kPa. […] Compound 2 and clodinafop treatments, alone and in combination, also included a surfactant. Weed species present in the experimental plots in sufficient quantity to be evaluated included wild oat (AVEFA, Avena fatua L.), common lambsquarters (CHEAL, Chenopodium album L.), kochia (KCHSC, Kochia scoparia (L.) Schrad.), wild buckwheat (POLCO, Polygonum convolvulus L.), Russian thistle (SASKR, Salsola kali L. ssp. ruthenica (Iljin) Soo), and field pennycress (THLAR, Thlaspi arvense L.). […] Common lambsquarters was evaluated only at 14 days after application. […] Results are the means of the four replicates.
# jimsonweed (DATST) = assay: Test 26 field trial, postemergence; assay type: in vivo, Datura stramonium; conditions: 28 DAA
# From the text: as §3
# dry-seeded rice (ORYSA) = assay: Test 28 greenhouse, postemergence; assay type: in vivo, Oryza sativa; conditions: 26 DAA
# Procedure: as §2
# field poppy (PAPRH) = assay: Test 24 growth chamber, postemergence; assay type: in vivo, Papaver rhoeas; conditions: 17 DAA
# Procedure: as §1
# corn (ZEAMD) [3] = assay: Test 28 greenhouse, post- and preemergence; assay type: in vivo, Zea mays ssp. indentata; parameters: scale not given here; conditions: 26 DAA
# Procedure: as §2
# [4] = system: common lambsquarters (CHEAL); assay: Test 4 field trial, postemergence; assay type: in vivo, Chenopodium album; conditions: 14 DAA
# [5] = system: Pennsylvania smartweed (POLPY); assay: Test 25 field trial, postemergence, growth as percent of control; assay type: in vivo, Polygonum pensylvanicum; conditions: 14 DAA
# From the text: Corn seeds (hybrid ‘Pioneer 31G96 RR’) were planted in mid spring season, 3.8 cm deep in a clay loam soil having 2% organic matter and a pH of 6.6. Plots were 6.1 m long by 3.0 m wide with rows spaced 76 cm apart. Seeds were spaced 15 cm apart within the rows. The field was managed using conventional tillage practices. […] Giant ragweed and Pennsylvania smartweed could only be evaluated 14 days after application. […] Results are the means of the three replicates. This growth inhibition data was converted to results in the form of “plant growth as a percent of control plant growth” using the calculation “100 minus growth inhibition”.
# When this form of Colby's Equation is used, if the observed effects on weeds are less than the expected values, the mixture is synergistic.
smiles,measurement,setting,value
"COC(=O)c1nc(C2CC2)nc(N)c1Cl [Compound 2, methyl 6-amino-5-chloro-2-cyclopropyl-4-pyrimidinecarboxylate]",SINAR Obs (scale 0 to 100),wild mustard (SINAR); Cpd 2 4 g a.i./ha,62
same,SINAR Obs (scale 0 to 100),wild mustard (SINAR); Cpd 2 8 g a.i./ha,65
same,SINAR Obs (scale 0 to 100),wild mustard (SINAR); Cpd 2 16 g a.i./ha,72
same,ECHCG Obs,barnyardgrass (ECHCG); Cpd 2 32 g a.i./ha,83
same,ECHCG Obs,barnyardgrass (ECHCG); Cpd 2 64 g a.i./ha,87
same,"Obs response, scale 0 to 100",velvetleaf (ABUTH); 15 g a.i./ha,31
same,"Obs response, scale 0 to 100",velvetleaf (ABUTH); 30 g a.i./ha,38
same,"Obs response, scale 0 to 100",velvetleaf (ABUTH); 45 g a.i./ha,61
same,IPOHE Obs,"[1]; 14 DAA, 30 g a.i./ha",90
same,IPOHE Obs,"[1]; 14 DAA, 45 g a.i./ha",67
same,IPOHE Obs,"[1]; 14 DAA, 60 g a.i./ha",98
same,IPOHE Obs,"[1]; 28 DAA, 30 g a.i./ha",95
same,IPOHE Obs,"[1]; 28 DAA, 45 g a.i./ha",99
same,IPOHE Obs,"[1]; 28 DAA, 60 g a.i./ha",98
same,IPOHE Obs,"[1]; 56 DAA, 30 g a.i./ha",88
same,IPOHE Obs,"[1]; 56 DAA, 45 g a.i./ha",96
same,IPOHE Obs,"[1]; 56 DAA, 60 g a.i./ha",98
same,ZEAMD Obs,"corn (ZEAMD) [2]; 14 DAA, 30 g a.i./ha",0
same,ZEAMD Obs,"corn (ZEAMD) [2]; 14 DAA, 45 g a.i./ha",2
same,ZEAMD Obs,"corn (ZEAMD) [2]; 14 DAA, 60 g a.i./ha",7
same,ZEAMD Obs,"corn (ZEAMD) [2]; 28 DAA, 30 g a.i./ha",2
same,ZEAMD Obs,"corn (ZEAMD) [2]; 28 DAA, 45 g a.i./ha",3
same,ZEAMD Obs,"corn (ZEAMD) [2]; 28 DAA, 60 g a.i./ha",5
same,ZEAMD Obs,"corn (ZEAMD) [2]; 56 DAA, 30 g a.i./ha",0
same,ZEAMD Obs,"corn (ZEAMD) [2]; 56 DAA, 45 g a.i./ha",0
same,ZEAMD Obs,"corn (ZEAMD) [2]; 56 DAA, 60 g a.i./ha",7
same,MATCH Obs (scale 0 to 100),wild chamomile (MATCH); Cpd 2 4 g a.i./ha,55
same,MATCH Obs (scale 0 to 100),wild chamomile (MATCH); Cpd 2 8 g a.i./ha,65
same,MATCH Obs (scale 0 to 100),wild chamomile (MATCH); Cpd 2 16 g a.i./ha,72
same,SASKR Obs,"Russian thistle (SASKR); 14 DAA, Cpd 2 30 g a.i./ha alone or with clodinafop 56 or fenoxaprop 90",88
same,SASKR Obs,"Russian thistle (SASKR); 14 DAA, Cpd 2 60 g a.i./ha alone or with clodinafop 56 or fenoxaprop 90",91
same,SASKR Obs,"Russian thistle (SASKR); 35 DAA, Cpd 2 30 g a.i./ha alone or with clodinafop 56 or fenoxaprop 90",99
same,SASKR Obs,"Russian thistle (SASKR); 35 DAA, Cpd 2 60 g a.i./ha alone",95
same,DATST Obs,jimsonweed (DATST); 30 g a.i./ha,100
same,DATST Obs,jimsonweed (DATST); 45 g a.i./ha,100
same,DATST Obs,jimsonweed (DATST); 60 g a.i./ha,100
same,ORYSA Obs,dry-seeded rice (ORYSA); Cpd 2 32 g a.i./ha,60
same,ORYSA Obs,dry-seeded rice (ORYSA); Cpd 2 64 g a.i./ha,83
same,PAPRH Obs (scale 0 to 100),field poppy (PAPRH); Cpd 2 4 g a.i./ha,62
same,PAPRH Obs (scale 0 to 100),field poppy (PAPRH); Cpd 2 8 g a.i./ha,72
same,PAPRH Obs (scale 0 to 100),field poppy (PAPRH); Cpd 2 16 g a.i./ha,75
same,ZEAMD Obs,"corn (ZEAMD) [3]; postemergence, Cpd 2 32 g a.i./ha",27
same,ZEAMD Obs,"corn (ZEAMD) [3]; postemergence, Cpd 2 64 g a.i./ha",50
same,ZEAMD Obs,"corn (ZEAMD) [3]; preemergence, Cpd 2 32 g a.i./ha",7
same,ZEAMD Obs,"corn (ZEAMD) [3]; preemergence, Cpd 2 64 g a.i./ha",7
same,CHEAL Obs,[4]; Cpd 2 30 g a.i./ha alone or with clodinafop 56 or fenoxaprop 90,83
same,CHEAL Obs,[4]; Cpd 2 60 g a.i./ha alone or with clodinafop 56 or fenoxaprop 90,92
same,POLPY Obs (percent of control),[5]; Cpd 2 15 g a.i./ha,95%
same,POLPY Obs (percent of control),[5]; Cpd 2 30 g a.i./ha,55%
same,POLPY Obs (percent of control),[5]; Cpd 2 45 g a.i./ha,65%
